Target: T1, KID (Homo sapiens, UniProt Q14807)
T1 construct: gene KIF22; Glu-C V8 protease added in crystallization
T1 sequence (Q14807 40-400): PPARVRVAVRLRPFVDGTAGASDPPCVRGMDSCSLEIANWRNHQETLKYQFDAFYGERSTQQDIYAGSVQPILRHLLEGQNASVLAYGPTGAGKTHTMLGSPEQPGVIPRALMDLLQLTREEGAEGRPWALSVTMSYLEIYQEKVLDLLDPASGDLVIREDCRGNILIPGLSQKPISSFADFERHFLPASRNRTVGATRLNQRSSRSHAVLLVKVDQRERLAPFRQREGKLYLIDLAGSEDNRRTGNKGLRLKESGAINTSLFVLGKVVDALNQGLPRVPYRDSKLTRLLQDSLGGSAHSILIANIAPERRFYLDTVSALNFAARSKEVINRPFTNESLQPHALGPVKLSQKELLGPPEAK
Assay: X-ray crystal structure of the complex
Assay type: binding
Conditions: crystals from 3.2 M NaCl, 0.1 M Tris pH 8.5, 291 K, 5 molar fold MgADP

## Nc1ncnc2c1ncn2[C@@H]1O[C@H](COP(=O)(O)OP(=O)(O)O)[C@@H](O)[C@H]1O [ADP]
  X-ray crystal structure of the complex: We solved the X-ray crystal structure of the KID catalytic domain in the ADP state
